Assay results reported in ChEMBL document CHEMBL4261592, “Antiplasmodial flavanones and a stilbene from Carpha glomerata” (Bioorg Med Chem Lett, 2018).

tested on: Plasmodium falciparum; assay: Antiplasmodial activity against ring-stage chloroquine-resistant Plasmodium falciparum Dd2 assessed as reduction in parasite viability after 72 hrs by SYBR Green I dye-based assay; format: functional, organism-based; conditions: Dd2, 72 h

Which IC50 does the source give for `COc1cc2c(c(O)c1C)C(=O)C[C@@H](c1cc(O)c(OC)c(O)c1)O2` here?
The IC50 was over 10 µM.

For `COc1c(O)cc([C@@H]2CC(=O)c3c(O)c(C)c(OC)c(C)c3O2)cc1O`, which IC50 is on record?
Its IC50 is over 10 µM.

With `COc1c(O)ccc(/C=C/c2cc(O)cc(O)c2)c1CC=C(C)C` as the compound, how does the IC50 read?
Its IC50 is 5.8 µM.

`CC(C)(O)CCc1c(O)cc(O)c2c1O[C@H](c1ccc(O)cc1)CC2=O` was tested. Which IC50 did it give?
The IC50 was 3.4 µM.

Which IC50 does the source give for `CC(C)=CCc1c(O)cc(O)c2c1O[C@H](c1ccc(O)cc1)CC2=O` here?
Its IC50 is 6.7 µM.

How did the IC50 turn out when `COc1c(O)cc([C@@H]2CC(=O)c3c(O)c(C)c(O)c(C)c3O2)cc1O` was run?
Its IC50 is over 10 µM.

Which IC50 does the source give for `C[C@@H]1CC[C@H]2[C@@H](C)C(=O)O[C@@H]3O[C@@]4(C)CC[C@@H]1[C@]32OO4` [ARTEMISININ] here?
The IC50 was 0.012 µM.

Which IC50 does the source give for `COc1c(O)cc([C@@H]2CC(=O)c3c(O)cc(O)c(CC=C(C)C)c3O2)cc1O` here?
Its IC50 is 5.2 µM.
